# Read-outs that look alike come from different tables or passages of the source. Positions of bridges follow the written chain, without caps; N, C: chain ends. Non-standard residues stand in square brackets, D forms with d. Residues, ends and D or L forms follow the SMILES beside them. No end group written: not given here. *: point of attachment. X1 = CC[C@H](C)CCCCC(=O)*; Dab = NCC[C@H](N)C(=O)O
# Columns and labels:
# [1] = test system: colistin-resistant A. baumannii TCGH 46709; test: Mouse lung infection model, survival; type: in vivo; settings: C57BL/6JNarl mice, i.t. A. baumannii TCGH 46709 3.5 × 10^8 CFU/mouse, three consecutive days, 16 mice/group, 3 days
# Protocol: (§1) We determined the in vivo protection efficacy of peptides in two different mouse infection models. In the mouse sepsis model ([Chen et al., 2016]), 3-week-old male ICR mice (∼20 g) were purchased from BioLASCO (Taiwan). These mice were inoculated intraperitoneally with S. aureus ATCC 19636 (4 × 10^6 CFU/mouse). At 2 h post-inoculation, the mice were randomly separated into 5 groups and received peptides (5 or 10 mg/kg) or the PBS control, respectively. Each group contained 5 mice. Mortality was monitored daily for 7 days following the bacterial inoculation. This experiment was repeated twice. In the mouse lung infection model ([Yang et al., 2016]), 6–8-week-old male C57BL/6JNarl mice (∼27 g) were purchased from National Laboratory Animal Center, Taiwan. The inoculums (3.5 × 10^8 CFU/mouse) were prepared by 1:1 mixing of LB culture and 10% mucin (Sigma). All mice were randomly separated into 3 groups and anesthetized by Isoflurane via inhalation, and inoculated intra-tracheally with colistin-resistant A. baumannii TCGH 46709. Two hours after inoculation, the mice were intraperitoneally injected daily with either colistin (5 mg/kg) ([Fishbain and Peleg, 2010]) or HBcARD derivative peptides (5 or 10 mg/kg), respectively, for three consecutive days. Each group contained 8 mice. Mortality was monitored every 12 h following the bacterial inoculation. This experiment was repeated twice.
# C57BL/6JNarl mice (∼27 g) were anesthetized and intra-tracheally inoculated with A. baumannii (3.5 × 10^8 CFU/mouse). At 2 h post-inoculation, the mice received i.p. injection of either D-150-177C or colistin, respectively, for three consecutive days (1 injection per day).
# [2] = test system: S. aureus ATCC 19636; test: Mouse sepsis model, survival; type: in vivo; settings: ICR mice
# Protocol: as §1
# The mice (∼20 g) were i.p. (intraperitoneally) inoculated with S. aureus ATCC19636 (4 × 10^6 CFU/mouse), followed by treatments with peptides or the PBS control at 2 h post-inoculation. We monitored the survival rate for 7 days (Figure 2B). All mice treated with PBS (10/10) died at day 1 post-inoculation. […] In contrast, administration of L-150-177C peptide at the same dose protected 70% of mice (7/10) from death (p < 0.05). It appears that the C-terminal cysteine is very critical for the in vivo protection as well. Next, we compared the in vivo protection efficacy of HBcARD 150-177C peptides containing either D-form or L-form arginines in this same model. The protection efficacy of peptide L-150-177C was 30% (3/10) at 5 mg/kg, whereas D-150-177C can protect all mice (10/10) from death at the same dose (Figure 2B).
# [3] = test system: ICR mice; test: In vivo acute toxicity, serum ALT (liver injury)
# Protocol: (§2) To measure in vivo the acute toxicity, 3-week-old male ICR mice (∼20 g) were purchased from BioLASCO (Taiwan). The mice were randomly separated into 6 groups, and were intraperitoneally injected with D-150-177C at concentrations of 20, 40, 60, and 80 mg/kg. A last-line antibiotic, polymyxin B (20 and 50 mg/kg), was used as a control. Each group contained 5 mice. At 1 day post-injection, blood sample was collected from each mouse. The liver function of mice was determined by measuring the ALT level in the blood. The survival rates of injected mice were monitored for 7 days.
# (§3) Polymyxins are the last-line antibiotics, but could be toxic at higher dose. We compared the acute toxicity of peptide D-150-177C with polymyxin B using ICR mice. The mice (∼20 g) were i.p. injected with D-150-177C peptide (20–80 mg/kg body weight). Polymyxin B (50 mg/kg body weight) was used as a control antibiotic. […] In contrast, all mice died of polymyxin B at 50 mg/kg.
# [4] = test system: colistin-sensitive A. baumannii ATCC17978; test: Mouse lung infection model, survival; type: in vivo; settings: C57BL/6JNarl mice, i.t. colistin-sensitive A. baumannii ATCC17978; i.p. daily for three days; data not shown
# [5] = test system: ICR mice; test: In vivo acute toxicity, survival
# Protocol: as §2, §3
# [6] = test system: A. baumannii ATCC17978; settings: A. baumannii ATCC17978 strain
# Protocol: (§4) Peptides were diluted in the same buffer. […] All peptides were tested in triplicate. […] Peptides were also diluted in MH broth. […] All peptides were tested in duplicate.
# [7] = test system: P. aeruginosa ATCC9027; type: cell-based, Pseudomonas aeruginosa
# Protocol: as §4
# [8] = test system: S. aureus ATCC19636; type: cell-based, Staphylococcus aureus; settings: for MBC: pH 7.2
# Protocol: as §4
# [9] = test system: K. pneumoniae ATCC13884; type: cell-based, Klebsiella pneumoniae
# Protocol: as §4
# [10] = test system: A. baumannii ATCC17978; type: cell-based, Acinetobacter baumannii
# Protocol: as §4
# [11] = test system: P. aeruginosa ATCC27853; test: Minimum bactericidal concentration (MBC); type: cell-based, Pseudomonas aeruginosa; settings: phosphate buffer pH 7.2, 37°C, 3 h, zero colony, triplicate
# Protocol: as §4
# [12] = test system: S. aureus ATCC25923; test: Minimum bactericidal concentration (MBC); type: cell-based, Staphylococcus aureus; settings: phosphate buffer pH 7.2, 37°C, 3 h, zero colony, triplicate
# Protocol: as §4
# [13] = test system: S. aureus ATCC29213; test: Minimum bactericidal concentration (MBC); type: cell-based, Staphylococcus aureus; settings: phosphate buffer pH 7.2, 37°C, 3 h, zero colony, triplicate
# Protocol: as §4
# [14] = test system: A. baumannii ATCC45530; test: Minimum bactericidal concentration (MBC); type: cell-based, Acinetobacter baumannii; settings: A. baumannii ATCC45530 (so in the source); phosphate buffer pH 7.2, 37°C, 3 h; zero colony; triplicate
# Protocol: as §4
# [15] = test system: A. baumannii ATCC46709; test: Minimum bactericidal concentration (MBC); type: cell-based, Acinetobacter baumannii; settings: A. baumannii ATCC46709 (so in the source); phosphate buffer pH 7.2, 37°C, 3 h; zero colony; triplicate
# Protocol: as §4
# [16] = test system: A. baumannii ATCC19606; test: Minimum bactericidal concentration (MBC); type: cell-based, Acinetobacter baumannii; settings: phosphate buffer pH 7.2, 37°C, 3 h, zero colony, triplicate
# Protocol: as §4
# [17] = test system: E. coli ATCC25922; test: Minimum bactericidal concentration (MBC); type: cell-based, Escherichia coli; settings: phosphate buffer pH 7.2, 37°C, 3 h, zero colony, triplicate
# Protocol: as §4
# [18] = treated mice, all tissues; ref Chen et al., 2013; cited from earlier work
# Excerpt: To reduce the cost for D-amino acids in peptide synthesis, we engineered peptides DL-150-177C and LD-150-177C, which contain only approximately 50 ...
# [19] = S. aureus ATCC19636 4 × 10^6 CFU/mouse i.p., peptide 5 mg/kg at 2 h post-inoculation, 7 days, n = 10/group (Figure 2B)
# [20] = S. aureus ATCC19636, 10^6 CFU/ml in 10 mM sodium phosphate, 50 mM NaCl, 37°C, 3 h, plated on MH agar, zero colony, triplicate
# [21] = P. aeruginosa ATCC9027, phosphate buffer pH 7.2, 37°C, 3 h, zero colony, triplicate
# [22] = A. baumannii ATCC17978, phosphate buffer pH 7.2, 37°C, 3 h, zero colony, triplicate
molecule,measurement,setting,value
C[C@@H](O)[C@H](NC(=O)[C@@H](CCCNC(=N)N)NC(=O)[C@@H](CCCNC(=N)N)NC(=O)[C@@H](CCCNC(=N)N)NC(=O)[C@@H]1CCCN1C(=O)[C@H](CO)NC(=O)[C@@H](CCCNC(=N)N)NC(=O)CNC(=O)[C@@H](CCCNC(=N)N)NC(=O)[C@@H](CCCNC(=N)N)NC(=O)[C@H](N)CCCNC(=N)N)C(=O)N1CCC[C@H]1C(=O)N[C@@H](CO)C(=O)N1CCC[C@H]1C(=O)N[C@H](CCCNC(=N)N)C(=O)N[C@H](CCCNC(=N)N)C(=O)N[C@H](CCCNC(=N)N)C(=O)N[C@H](CCCNC(=N)N)C(=O)N[C@@H](CO)C(=O)N[C@@H](CCC(N)=O)C(=O)N[C@@H](CO)C(=O)N1CCC[C@H]1C(=O)N[C@H](CCCNC(=N)N)C(=O)N[C@H](CCCNC(=N)N)C(=O)N[C@H](CCCNC(=N)N)C(=O)N[C@H](CCCNC(=N)N)C(=O)N[C@@H](CO)C(=O)N[C@@H](CS)C(=O)O [D-150-177C] (H-[dR][dR][dR]G[dR]SP[dR][dR][dR]TPSP[dR][dR][dR][dR]SQSP[dR][dR][dR][dR]SC-OH; N-terminus and C-terminus assumed),survival rate (mice protected from death),[1]; 5 mg/kg/day i.p. from 2 h,62.5%
same,survival rate (mice protected from death),[1]; 10 mg/kg/day i.p. from 2 h,87.5%
same,survival rate,[2]; [19],100%
same,survival rate,"[2]; S. aureus sepsis, peptide 5 mg/kg at 2 h post-inoculation, n = 10/group, D-arginine substitution comparison (Figure 4)",protected all mice from death
same,ALT level compared with polymyxin B at 20 mg/kg,"[3]; i.p. 20 mg/kg, serum at day 1",slight increase
same,ALT level compared with polymyxin B at 20 mg/kg,"[3]; i.p. 40 mg/kg, serum at day 1",slight increase
same,ALT level compared with polymyxin B at 20 mg/kg,"[3]; i.p. 60 mg/kg, serum at day 1, P < 0.01",significantly higher
same,average ALT value,"[3]; i.p. 60 mg/kg, serum at day 1 post-injection",less than 100 IU/L
same,survival rate,[4],comparable to that of colistin treatment
same,LD50,"[5]; i.p., estimated from survival at 20-80 mg/kg",~75 mg/kg
same,survival rate,"[5]; single i.p. 20 mg/kg, 7 days, 5 mice/group",100%
same,survival rate,"[5]; single i.p. 40 mg/kg, 7 days, 5 mice/group",100%
same,survival rate,"[5]; single i.p. 60 mg/kg, 7 days, 5 mice/group",80%
same,survival rate,"[5]; single i.p. 80 mg/kg, 7 days, 5 mice/group",40%
"CC[C@H](C)CCCCC(=O)N[C@@H](CCN)C(=O)N[C@H](C(=O)N[C@@H](CCN)C(=O)N[C@H]1CCNC(=O)[C@H]([C@@H](C)O)NC(=O)[C@H](CCN)NC(=O)[C@H](CCN)NC(=O)[C@H](CC(C)C)NC(=O)[C@@H](CC(C)C)NC(=O)[C@H](CCN)NC1=O)[C@@H](C)O [colistin, reference compound] (X1-[Dab]T[Dab][Dab][Dab][dL]L[Dab][Dab]T; lactam 4-C (inferred); N-terminus assumed)",survival rate (mice protected from death),[1]; 5 mg/kg/day i.p. from 2 h,12.5%
same,MIC,[6],around 4 mg/L
NAKDYKGAAAEFPKWNKAGGRVLAGLVKRRKC [LysinC],MBC,"[7]; ATCC9027, 3 h, pH 7.2",16 µg/mL
same,decrease in MBC relative to parental peptide without C-terminal cysteine,[7]; P. aeruginosa,4 fold
same,MBC,"[8]; ATCC19636, 3 h",128 µg/mL
same,decrease in MBC relative to parental peptide without C-terminal cysteine,[8]; S. aureus,> 8 fold
same,MBC,"[9]; ATCC13884, 3 h, pH 7.2",128 µg/mL
same,decrease in MBC relative to parental peptide without C-terminal cysteine,[9]; K. pneumonia,> 8 fold
same,decrease in MBC relative to parental peptide without C-terminal cysteine,[10]; A. baumannii,32 fold
same,MBC,"[10]; ATCC17978, 3 h, pH 7.2",32 µg/mL
RRRGRSPRRRTPSPRRRRSC [150-171C],MBC,[8]; [20],> 57.2 µg/mL
RRRGRSPRRRTPSPRRRRSQSPRRRRSC [150-177C],MBC,[7]; [21],7.1 µg/mL
same,survival rate,[2]; [19],30%
same,survival rate,"[2]; S. aureus ATCC19636 4 × 10^6 CFU/mouse i.p., peptide 10 mg/kg at 2 h post-inoculation, 7 days, n = 10/group (Figure 2B)",70%
same,MBC,[8]; [20],7.1 µg/mL
same,MBC,[10]; [22],1.8 µg/mL
same,MBC,[11],7.1 µg/mL
same,MBC,[12],7.1 µg/mL
same,MBC,[13],7.1 µg/mL
same,MBC,[14],1.8 µg/mL
same,MBC,[15],3.6 µg/mL
same,MBC,[16],0.9 µg/mL
same,MBC,[17],7.1 µg/mL
RRRRSQSPRRRRSC [164-177C],MBC,[8]; [20],> 57.2 µg/mL
RRRTPSPRRRRSQSPRRRRSC [157-177C],MBC,[8]; [20],> 57.2 µg/mL
TVVRRRGRSPRRRTPSPRRRRSQSPRRRRSQSRESQC [147-183],MBC,[7]; [21],9.2 µg/mL
same,MBC,[8]; [20],18.3 µg/mL
same,MBC,[10]; [22],2.3 µg/mL
same,MBC,[11],9.2 µg/mL
same,MBC,[12],18.3 µg/mL
same,MBC,[13],18.3 µg/mL
same,MBC,[14],2.3 µg/mL
same,MBC,[15],4.6 µg/mL
same,MBC,[16],2.3 µg/mL
same,"reduction of bacterial burdens in spleen, liver, and blood",[18],approximately 100 fold
same,MBC,[17],18.3 µg/mL
polymyxin B [reference compound],survival,"[5]; single i.p. 50 mg/kg, 7 days, 5 mice/group",all mice died
